Reference: PubChem BioAssay AID248 (DTP/NCI, 2004)
Inconclusive results and toxic doses are left out. Rule as the data show it: active = T/C of 150% or more; inactive = T/C below 125%.

Tested on: L1210 leukemia ip in BDF1 mice, survival T/C
Experiment: NCI In Vivo Anticancer Drug Screen. Data for tumor model L1210 Leukemia (intraperitoneal) in B6D2F1 (BDF1) mice
Details: endpoint: mean survival time, higher = longer survival
Outline: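 Value reflects the ratio of survival in compound-treated mice to survival in vehicle-treated controls, with both groups carrying the same transplanted tumor.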

[1] = dose: 100.0 mg/kg/injection, schedule: Q04DX002 (ip), vehicle: Klucel (hydroxypropylcellulose) (HPC)
[2] = dose: 100.0 mg/kg/injection, schedule: Q01DX001 (ip), vehicle: saline
[3] = dose: 100.0 mg/kg/injection, schedule: Q01DX001 (ip), vehicle: carboxymethylcellulose (CMC)
[4] = dose: 200.0 mg/kg/injection, schedule: Q01DX001 (ip), vehicle: carboxymethylcellulose (CMC)
[5] = dose: 400.0 mg/kg/injection, schedule: Q01DX001 (ip), vehicle: carboxymethylcellulose (CMC)
[6] = dose: 100.0 mg/kg/injection, schedule: Q04DX003 (ip), vehicle: Klucel (hydroxypropylcellulose) (HPC)
[7] = dose: 200.0 mg/kg/injection, schedule: Q04DX003 (ip), vehicle: Klucel (hydroxypropylcellulose) (HPC)
[8] = dose: 400.0 mg/kg/injection, schedule: Q04DX003 (ip), vehicle: Klucel (hydroxypropylcellulose) (HPC)
[9] = dose: 100.0 mg/kg/injection, schedule: Q01DX009 (ip), vehicle: Klucel (hydroxypropylcellulose) (HPC)
[10] = dose: 200.0 mg/kg/injection, schedule: Q01DX009 (ip), vehicle: Klucel (hydroxypropylcellulose) (HPC)
[11] = dose: 400.0 mg/kg/injection, schedule: Q01DX009 (ip), vehicle: Klucel (hydroxypropylcellulose) (HPC)
[12] = dose: 200.0 mg/kg/injection, schedule: Q01DX001 (ip), vehicle: saline
[13] = dose: 400.0 mg/kg/injection, schedule: Q01DX001 (ip), vehicle: saline
[14] = dose: 100.0 mg/kg/injection, schedule: Q04DX003 (ip), vehicle: saline
[15] = dose: 200.0 mg/kg/injection, schedule: Q04DX003 (ip), vehicle: saline
[16] = dose: 400.0 mg/kg/injection, schedule: Q04DX003 (ip), vehicle: saline
[17] = dose: 100.0 mg/kg/injection, schedule: Q01DX001 (ip), vehicle: Klucel (hydroxypropylcellulose) (HPC)
[18] = dose: 200.0 mg/kg/injection, schedule: Q01DX001 (ip), vehicle: Klucel (hydroxypropylcellulose) (HPC)
[19] = dose: 400.0 mg/kg/injection, schedule: Q01DX001 (ip), vehicle: Klucel (hydroxypropylcellulose) (HPC)
[20] = dose: 100.0 mg/kg/injection, schedule: Q04DX003 (ip), vehicle: saline with Tween-80
[21] = dose: 200.0 mg/kg/injection, schedule: Q04DX003 (ip), vehicle: saline with Tween-80
[22] = dose: 400.0 mg/kg/injection, schedule: Q04DX003 (ip), vehicle: saline with Tween-80

Measured: T/C

O=C(CCCC(=O)N/N=C/C1CC=CCC1)N/N=C\C1CC=CCC1 (stereo unspecified)
inactive: dose: 50.0 mg/kg/injection, schedule: Q01DX001 (ip), vehicle: other 90 % of control | dose: 100.0 mg/kg/injection, schedule: Q01DX001 (ip), vehicle: other 90 % of control | dose: 400.0 mg/kg/injection, schedule: Q01DX001 (ip), vehicle: other 98 % of control

CCOC(=O)c1ccc(NC(=O)c2cccc(Cl)c2)cc1
inactive: [1] 94 % of control

NC(=S)NN=C1CCCCCCCCC1
inactive: [2] 102 % of control

O=C1c2ccccc2-c2ccc([N+](=O)[O-])c(Br)c21
inactive: [3] 106 % of control | [4] 106 % of control | [5] 102 % of control

O=C(Nc1ccccc1C(=O)c1ccccc1)c1ccc(Cl)cc1Cl
inactive: dose: 50.0 mg/kg/injection, schedule: Q01DX009 (ip), vehicle: saline with Tween-80 105 % of control | dose: 100.0 mg/kg/injection, schedule: Q01DX009 (ip), vehicle: saline with Tween-80 94 % of control | dose: 200.0 mg/kg/injection, schedule: Q01DX009 (ip), vehicle: saline with Tween-80 87 % of control

CCCCCCCCCCCCCCCCCCCCCCCCC
inactive: [6] 91 % of control | [7] 89 % of control | [8] 87 % of control

NC(=O)c1ccccc1NC(=O)c1ccccc1Cl
inactive: [9] 102 % of control | [10] 100 % of control | [11] 93 % of control

COc1ccc2c(=O)c(O)c(-c3ccc(OC)c(OC)c3)oc2c1
inactive: dose: 50.0 mg/kg/injection, schedule: Q01DX001 (ip), vehicle: saline 97 % of control | [2] 94 % of control | [12] 92 % of control | [13] 94 % of control

Oc1c(-c2ccccc2)nn(O)c1-c1ccccc1
inactive: dose: 50.0 mg/kg/injection, schedule: Q01DX009 (ip), vehicle: Klucel (hydroxypropylcellulose) (HPC) 105 % of control

O=[N+]([O-])c1cc(/C=N\Nc2ccccn2)ccc1Cl
inactive: [6] 112 % of control | [7] 101 % of control | [8] 101 % of control

CCS(=O)(=O)C(c1ccccc1)S(=O)(=O)CC
inactive: [3] 95 % of control | [4] 87 % of control | [5] 98 % of control

COC(=O)C1CCCCC1NC(C)=O (stereo unspecified)
inactive: [2] 102 % of control | [14] 114 % of control | [12] 110 % of control | [15] 100 % of control | [13] 103 % of control | [16] 103 % of control

O=C1c2cc([N+](=O)[O-])ccc2-c2cc(F)ccc21
inactive: dose: 50.0 mg/kg/injection, schedule: Q01DX001 (ip), vehicle: carboxymethylcellulose (CMC) 104 % of control | [3] 95 % of control | [4] 93 % of control | [5] 90 % of control

CC(=O)c1c(C)[nH]c(C(=O)OC(C)(C)C)c1C
inactive: [17] 95 % of control | [6] 102 % of control | [18] 97 % of control | [7] 96 % of control | [19] 95 % of control | [8] 96 % of control

c1ccc2c(c1)CC(=[N+]1CCCCC1)Cc1ccccc1-2
inactive: dose: 100.0 mg/kg/injection, schedule: Q01DX009 (ip), vehicle: saline 92 % of control | [14] 103 % of control | dose: 200.0 mg/kg/injection, schedule: Q01DX009 (ip), vehicle: saline 92 % of control | [15] 89 % of control | [16] 87 % of control

C=CCc1cn(C2OC(COC(=O)c3ccc(Cl)cc3)C(OC(=O)c3ccc(Cl)cc3)C2O)c(=O)[nH]c1=O (stereo unspecified)
inactive: dose: 100.0 mg/kg/injection, schedule: Q01DX005 (ip), vehicle: saline 90 % of control | dose: 200.0 mg/kg/injection, schedule: Q01DX005 (ip), vehicle: saline 91 % of control

CCCC(C(=O)OCC)C(=O)c1ccccc1 (stereo unspecified)
inactive: [6] 95 % of control | [7] 98 % of control | [8] 92 % of control

C#CCN(CC#C)c1ccccc1
inactive: dose: 100.0 mg/kg/injection, schedule: Q04DX002 (ip), vehicle: saline with Tween-80 100 % of control | dose: 200.0 mg/kg/injection, schedule: Q04DX002 (ip), vehicle: saline with Tween-80 93 % of control | dose: 400.0 mg/kg/injection, schedule: Q04DX002 (ip), vehicle: saline with Tween-80 97 % of control

COc1ccc(NC(=O)Nc2ccc(Cl)cc2)cc1
inactive: [9] 97 % of control | [6] 104 % of control | [10] 98 % of control | [7] 104 % of control | [11] 93 % of control | [8] 106 % of control

C1CCC2CC3CCCCC3CC2C1 (stereo unspecified)
inactive: [2] 90 % of control | [13] 102 % of control

CCOC(=O)CCCc1c(C)[nH]c2ccc(Cl)cc12
inactive: [1] 98 % of control | dose: 200.0 mg/kg/injection, schedule: Q04DX002 (ip), vehicle: Klucel (hydroxypropylcellulose) (HPC) 102 % of control | dose: 400.0 mg/kg/injection, schedule: Q04DX002 (ip), vehicle: Klucel (hydroxypropylcellulose) (HPC) 91 % of control

Nc1cc(Nc2ccc(Cl)[nH]c2=S)nc(N)n1
inactive: [17] 90 % of control | [18] 93 % of control | [19] 92 % of control

CC(=O)Oc1ccc(OC(C)=O)c2c1C=CC=CC2
inactive: [20] 104 % of control | [21] 86 % of control | [22] 94 % of control

Clc1nc2ncn3ncnc3c2[nH]1
inactive: dose: 100.0 mg/kg/injection, schedule: Q01DX001 (ip), vehicle: saline with Tween-80 104 % of control | dose: 200.0 mg/kg/injection, schedule: Q01DX001 (ip), vehicle: saline with Tween-80 101 % of control | dose: 400.0 mg/kg/injection, schedule: Q01DX001 (ip), vehicle: saline with Tween-80 92 % of control

O=C(O)C1C2CCC1C2 (stereo unspecified)
inactive: [20] 98 % of control | [21] 101 % of control | [22] 95 % of control

COc1cc2c(cc1OC)-c1c([O-])c3cc(OC)c(OC)cc3n[n+]1CC2
inactive: dose: 75.0 mg/kg/injection, schedule: Q01DX001 (ip), vehicle: saline 98 % of control | dose: 150.0 mg/kg/injection, schedule: Q01DX001 (ip), vehicle: saline 86 % of control | dose: 300.0 mg/kg/injection, schedule: Q01DX001 (ip), vehicle: saline 89 % of control

C1O[C@@H]1[C@H]1CO1
inactive: dose: 9.5 mg/kg/injection, schedule: Q01DX001 (ip), vehicle: saline 100 % of control | dose: 19.0 mg/kg/injection, schedule: Q01DX001 (ip), vehicle: saline 97 % of control | dose: 38.0 mg/kg/injection, schedule: Q01DX001 (ip), vehicle: saline 101 % of control
